Key:
Format in all cases: in vivo
Dermatophagoides farinae [1] = test: Mini-mattress trap: attraction capabilities of attracting solutions sprayed on felt
Experimental: (§1) Rearing: The species studied were Dermatophagoides pteronyssinus and Dermatophagoides farinae, house dust mite common in mattresses in Eurasia. Mites are reared in Petri dishes and fed with human skin flakes (skin and whiskers obtained by cleaning electric […]). All mites were reared together under defined conditions (20° C. and 75% relative humidity). The experiments took place in a room kept at 20° C. and 40% relative humidity. Aim of the experiments: The aim was to test the trap in condition similar to the conditions that will be met by the user of the trap. Materials and methods: The mattresses were built at a smaller scale (15× reduction) than usual mattresses. These mini-mattresses are made in polyurethane and covered by a cover in cotton. They were infested with mites since at least 3 months. The fabric was a felt of 20 mg/cm^2 and is a rectangle of 10 cm×20 cm. It was placed on the mini-mattress. Then the attracting solution was sprayed on the fabric with a spray bottle. The fabric was left in place on the mattress during one hour. During this time, the mites moved in the felt. It is very difficult to count directly the mites hidden in the mattress and in the fabric. Therefore, we used a Berlèse funnel which is a device that is usually used to separate insects from litter. Here, it was used to separate the mites from their mattress or from the fabric. The Berlèse funnel uses a light bulb to heat and dry the mattress, thus driving the mites downwards through a screen and into a collecting jar containing some food and some water. […] They are attracted by a source of moisture and the smell of food. The mattress or blanket were therefore placed in the funnel (FIG. 2). The mites went downwards in the direction of the jar, then in the jar. The harvest of the jar containing the mites took place after one day. Mites had then 24 hours to migrate to the jar collector. As a substantial proportion of the population is immobile (moulting mites), trapping is less efficient than it would be otherwise and estimate of population size that is trapped are likely to be biased. To avoid this bias and make a proper assessment of the populations in infested mattresses, mattresses were carefully brushed with a soft brush at the end of the manipulation meaning that immobile mites and eggs also fall into the funnel. Fabric was carefully brushed too. The Berlèze funnel was rinsed with ethanol. Thus, mites still on the inner wall of the funnel were driven by ethanol in the jar collector. At the end of the experiment, the jar contained: the food used as attracting to mites, a small amount of water also used for attracting, mites, and ethanol. The jar was emptied into a Petri dish and we counted mites under binocular. Counting of mites was made under binocular microscope (magnification 10×). The set-up is illuminated with a cold lamp (KL 1500 LCD, Schott ●). The felt was sprayed with different attracting compositions: a solution of lavandulol, a solution of Tween 60, a combination of lavandulol and Tween 60, a solution of citral, and the attracting solution commercialized under the brand name Acar'up were compared at various dilutions.

[2] = tested on: Dermatophagoides pteronyssinus; test: as above
Experimental: as §1

Acarus siro = test: Toxicity, direct contact
Experimental: (§2) FIGS. 11A-11D are sets of graphs showing the percentage of dead mites after direct contact with different doses of lavandulol (at a dilution of 10^−6, 0.184 of pure solution or 0.5 μL of pure solution) or water (Ctrl) for different time of exposure. Four species of mites were tested: Dermatophagoides pteronyssinus (FIG. 11A), Dermatophagoides farinae (FIG. 11B), Tyrophagus putrescentiae (FIG. 11C) and Acarus siro (FIG. 11D).
(§3) The species studied were two species of dust common in mattresses in Eurasia (Dermatophagoides pteronyssinus and Dermatophagoides farinae), and two species of stored food mites common in Eurasia (Tyrophagus putrescentiae and Acarus siro). These four species were reared under defined conditions (20° C. and 75% relative humidity). The house dust mites were fed with human flakes (skin and whiskers obtained by cleaning electric shavers) and stored food mites were fed with fish food. The experiments were performed at 20° C. and 40% relative humidity.
(§4) For this experiment, for each of the four species, a group of mites (10<n<25) was placed in a Petri dish in direct contact with the substance to test. To directly contact mites with the substance, a piece of paper filter (5×1 cm) impregnated with lavandulol at various concentration (10 μL of a 10^−6 dilution, 0.18 μL of pure solution and 0.5 μL of pure solution, corresponding respectively to 8.8 ng, 0.15 mg or 0.417 mg of lavandulol), or with a neutral solution, was placed in the Petri dish. The dish was then closed with Parafilm●.
(§5) After a determined time (15 min, 1 hour or 24 hours), the number of dead mites were counted as previously described.

Dermatophagoides farinae [3] = test: Toxicity, direct contact
Experimental: as §2, §3, §4, §5

[4] = tested on: Dermatophagoides pteronyssinus; test: Toxicity, direct contact
Experimental: as §2, §3, §4, §5

Tyrophagus putrescentiae = test: Toxicity, direct contact
Experimental: as §2, §3, §4, §5

[5] = Dilution 10^−6 (* mixture of a lavandulol solution at 10^−6 and a Tween 60 solution at 10^−6)
[6] = 10^−6 dilution (10 μL), 15 min, 1 hour or 24 hours
[7] = pure solutions (0.18 μL and 0.5 μL), after 1 hour
[8] = pure solutions (0.18 μL and 0.5 μL), after 24 hours

`C=C(C)C(CO)CC=C(C)C` (stereo not drawn) [Lavandulol, 5-Methyl-2-prop-1-en-2-ylhex-4-en-1-ol] was tested, and the “attraction capabilities, percentage of mites” value (Dermatophagoides farinae [1]; Dilution 10^−3) was 57%, the “attraction capabilities, percentage of mites” value (Dermatophagoides farinae [1]; Dilution 10^−5) was 90% and the “attraction capabilities, percentage of mites” value (Dermatophagoides farinae [1]; [5]) was 71%. The “attraction capabilities, percentage of mites” value (Dermatophagoides farinae [1]; Dilution 10^−8) was 37%, the “attraction capabilities, percentage of mites” value (Dermatophagoides farinae [1]; Dilution 10^−9) was 28% and the “attraction capabilities, percentage of mites” value (Dermatophagoides farinae [1]; Dilution Undiluted) was 6%. The “attraction capabilities, percentage of mites” value ([2]; Dilution 10^−1) was 34%, the “attraction capabilities, percentage of mites” value ([2]; Dilution 10^−3) was 56% and the “attraction capabilities, percentage of mites” value ([2]; Dilution 10^−5) was 91%. For the same compound, the “attraction capabilities, percentage of mites” value [2, 5] was 64%, the “attraction capabilities, percentage of mites” value ([2]; Dilution 10^−8) was 46% and the “attraction capabilities, percentage of mites” value ([2]; Dilution 10^−9) was 55%. The “attraction capabilities, percentage of mites” value ([2]; Dilution Undiluted) was 8%, the “death of mites by contact” value (Acarus siro; [6]) was “doesn't cause death of mites” and the “mites died by contact” value (Acarus siro; [7]) was 97%. The “death of mites by contact” value (Dermatophagoides farinae [3]; [6]) was “doesn't cause death of mites”, the “death of mites by contact” value (Dermatophagoides farinae [3]; [7]) was “lead to mites' death” and the “death of mites by contact” value (Dermatophagoides farinae [3]; [8]) was “all mites being died”. For the same compound, the “death of mites by contact” value [4, 6] was “doesn't cause death of mites”, the “death of mites by contact” value [4, 7] was “lead to mites' death” and the “death of mites by contact” value [4, 8] was “all mites being died”. For the same compound, the “death of mites by contact” value (Tyrophagus putrescentiae; [6]) was “doesn't cause death of mites”, the “death of mites by contact” value (Tyrophagus putrescentiae; [7]) was “lead to mites' death” and the “death of mites by contact” value (Tyrophagus putrescentiae; [8]) was “all mites being died”.

— patent US20220386582A1, “METHOD AND DEVICE TO TRAP ACARIDS” (DOMOBIOS, priority 2015, published 2022)
